Assay in all cases: relative viability (nuclei count vs DMSO), 5 days (fraction); higher = more cells survive
Compound in assay [1]: CS(=O)(=O)N1CCN(Cc2cc3nc(-c4cccc5[nH]ncc45)nc(N4CCOCC4)c3s2)CC1 [Pictilisib] + Cc1cc(Nc2cc(N3CCN(C)CC3)nc(Sc3ccc(NC(=O)C4CC4)cc3)n2)n[nH]1 [Tozasertib] (partner 0.1 µM)
Summed up: (§1)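 Nuclei were stained with Hoechst during a one-step fixation (final 0.05% Triton X-100, 1% formaldehyde, 1 ug/ml Hoechst) carried out 5 days after dosing, then counted on 4× images. The cells, lung cancer lines in 1536-well plates, had been dosed by pin tool the day after seeding with one drug alone or a fixed anchor-drug dose plus five library-drug doses (not always all listed) in √10 steps. Relative viability is the nuclei count in treated wells divided by that in vehicle wells, and each value is the median of duplicate plates.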

Compound in assay [2]: NC1(c2ccc(-c3nc4ccn5c(=O)[nH]nc5c4cc3-c3ccccc3)cc2)CCC1 [MK-2206] + CC(C)C[C@H](NC(=O)[C@H](Cc1ccccc1)NC(=O)c1cnccn1)B(O)O [Bortezomib] (partner 0.002 µM)
The procedure, abridged:
as §1

Compound in assay [3]: CS(=O)(=O)N1CCN(Cc2cc3nc(-c4cccc5[nH]ncc45)nc(N4CCOCC4)c3s2)CC1 [Pictilisib] + CS(=O)(=O)CCNCc1ccc(-c2ccc3ncnc(Nc4ccc(OCc5cccc(F)c5)c(Cl)c4)c3c2)o1 [Lapatinib] (partner 2 µM)
The procedure, abridged:
as §1

Compound in assay [4]: NC1(c2ccc(-c3nc4ccn5c(=O)[nH]nc5c4cc3-c3ccccc3)cc2)CCC1 [MK-2206] + Cc1nc(NC(=O)N2CCC[C@H]2C(N)=O)sc1-c1ccnc(C(C)(C)C(F)(F)F)c1 [Alpelisib] (partner 2 µM)
Summed up:
as §1

Compound in assay [5]: NC1(c2ccc(-c3nc4ccn5c(=O)[nH]nc5c4cc3-c3ccccc3)cc2)CCC1 [MK-2206] + Cc1nc(Nc2ncc(C(=O)Nc3c(C)cccc3Cl)s2)cc(N2CCN(CCO)CC2)n1 [Dasatinib] (partner 0.075 µM)
The procedure, abridged:
as §1

On to UMC-11, for which the relative viability was determined as 0.202 in assay [1] (first compound 0.02 µM); 0.192 in assay [1] (first compound 0.06325 µM); 0.2 in assay [1] (first compound 0.6325 µM); 0.216 in assay [1] (first compound 2 µM); 0.668 in assay [2] (first compound 0.01 µM); 0.793 in assay [2] (first compound 0.03162 µM). Also, the relative viability in assay [2] (first compound 0.3162 µM) stood at 0.852; in assay [2] (first compound 1 µM), 0.389; in assay [3] (first compound 0.02 µM), 1.09; in assay [3] (first compound 0.06325 µM) it was 1.21; in assay [3] (first compound 0.6325 µM) it was 1.03; in assay [3] (first compound 2 µM), 0.887. In addition, the relative viability in assay [4] (first compound 0.01 µM) was found to be 1.03; in assay [4] (first compound 0.03162 µM), 0.908; in assay [4] (first compound 0.3162 µM) it was 1.1; in assay [4] (first compound 1 µM) it was 0.994; in assay [5] (first compound 0.01 µM), 0.465; in assay [5] (first compound 0.03162 µM) it was 0.434. In addition, the relative viability is 0.503 in assay [5] (first compound 0.3162 µM) and 0.475 in assay [5] (first compound 1 µM).

The values above are taken from the supplement of paper PMC10307832.
